One compound from PMC8171091, “Tanshinone I, a new EZH2 inhibitor restricts normal and malignant hematopoiesis through upregulation of MMP9 and ABCG2” (Theranostics, 2021) can be followed below.

The target in assay [1] is T1, EZH2 (wild type PRC2 complex) (Homo sapiens, UniProt Q15910).
T1 construct: wild type PRC2 complex (31387, Active Motif); with PRC2 complex (EED, SUZ12)
Kind of assay: in vitro methyltransferase assay with recombinant PRC2 and histone H3.[…], western blot readout. It counts as biochemical. (In general: Immunoblotting shows a protein as a band on a membrane.)

The target of the next assay is EZH2 (zEZH2) (Danio rerio, UniProt Q08BS4). Kind of assay: SPR (Biacore T200), EZH2 immobilized on CM5 chip. Format: binding. For orientation: In SPR one partner is held on a chip, and binding of the other changes the refractive index at the surface.
In a further assay the target is EED (hEED) (Homo sapiens, UniProt O75530). Nature of the assay: SPR (Biacore T200), EED immobilized on CM5 chip. Format: binding.
EED (hEED), sequence (O75530 2-441): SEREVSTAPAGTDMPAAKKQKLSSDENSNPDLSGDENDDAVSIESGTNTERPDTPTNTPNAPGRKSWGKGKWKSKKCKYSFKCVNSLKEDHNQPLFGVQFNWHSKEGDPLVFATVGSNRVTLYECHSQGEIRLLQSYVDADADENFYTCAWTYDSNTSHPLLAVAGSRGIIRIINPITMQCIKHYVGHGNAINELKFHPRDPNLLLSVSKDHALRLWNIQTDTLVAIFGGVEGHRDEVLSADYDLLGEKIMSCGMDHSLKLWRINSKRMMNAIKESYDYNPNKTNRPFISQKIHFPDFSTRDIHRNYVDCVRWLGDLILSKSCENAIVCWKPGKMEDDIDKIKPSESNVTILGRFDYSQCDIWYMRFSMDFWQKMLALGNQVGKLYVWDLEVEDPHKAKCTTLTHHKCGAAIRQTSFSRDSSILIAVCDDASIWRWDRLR

T1 sequence (Q15910 whole entry): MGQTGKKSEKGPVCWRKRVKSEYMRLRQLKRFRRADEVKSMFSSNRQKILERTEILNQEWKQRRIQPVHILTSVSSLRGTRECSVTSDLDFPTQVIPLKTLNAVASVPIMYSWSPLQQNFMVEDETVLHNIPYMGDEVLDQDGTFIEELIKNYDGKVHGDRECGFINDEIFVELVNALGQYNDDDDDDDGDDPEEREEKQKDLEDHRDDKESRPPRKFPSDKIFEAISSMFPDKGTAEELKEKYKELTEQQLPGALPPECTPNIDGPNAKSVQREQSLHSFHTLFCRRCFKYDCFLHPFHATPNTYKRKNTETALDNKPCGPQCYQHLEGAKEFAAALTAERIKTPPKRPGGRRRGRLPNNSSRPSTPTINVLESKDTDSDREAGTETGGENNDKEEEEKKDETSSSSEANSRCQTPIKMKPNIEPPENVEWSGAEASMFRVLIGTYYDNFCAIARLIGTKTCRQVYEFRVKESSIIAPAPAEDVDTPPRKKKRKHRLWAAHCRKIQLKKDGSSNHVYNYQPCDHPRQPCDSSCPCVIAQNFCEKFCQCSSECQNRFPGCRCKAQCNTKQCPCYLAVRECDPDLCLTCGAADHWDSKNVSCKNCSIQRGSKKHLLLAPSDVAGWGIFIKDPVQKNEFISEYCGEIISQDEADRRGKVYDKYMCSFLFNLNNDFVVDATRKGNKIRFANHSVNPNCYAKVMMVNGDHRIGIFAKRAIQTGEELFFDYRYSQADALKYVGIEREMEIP
T1 sequence (O75530 2-441 partner): as the sequence (O75530 2-441) above
T1 sequence (Q15022 whole entry partner): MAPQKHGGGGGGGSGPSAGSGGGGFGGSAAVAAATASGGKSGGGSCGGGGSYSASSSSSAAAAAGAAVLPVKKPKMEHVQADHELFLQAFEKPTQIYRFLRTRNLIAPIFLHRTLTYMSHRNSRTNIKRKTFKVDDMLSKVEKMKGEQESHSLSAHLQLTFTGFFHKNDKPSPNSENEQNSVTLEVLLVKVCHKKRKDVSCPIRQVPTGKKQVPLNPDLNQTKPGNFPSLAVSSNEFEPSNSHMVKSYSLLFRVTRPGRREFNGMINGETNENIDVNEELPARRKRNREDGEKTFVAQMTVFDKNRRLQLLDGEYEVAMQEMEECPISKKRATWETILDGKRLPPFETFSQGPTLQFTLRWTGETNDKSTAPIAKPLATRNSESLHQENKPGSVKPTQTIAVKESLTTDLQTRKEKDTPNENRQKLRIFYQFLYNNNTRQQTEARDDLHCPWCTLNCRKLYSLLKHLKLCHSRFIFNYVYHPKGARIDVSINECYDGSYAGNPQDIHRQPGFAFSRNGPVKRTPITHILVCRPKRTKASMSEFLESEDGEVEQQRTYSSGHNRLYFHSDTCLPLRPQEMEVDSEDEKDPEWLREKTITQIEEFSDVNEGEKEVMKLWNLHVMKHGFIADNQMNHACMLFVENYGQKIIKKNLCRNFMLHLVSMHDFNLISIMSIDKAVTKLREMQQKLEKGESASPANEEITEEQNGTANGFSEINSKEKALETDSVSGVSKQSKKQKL
T1 sequence (Q09028 2-425 partner): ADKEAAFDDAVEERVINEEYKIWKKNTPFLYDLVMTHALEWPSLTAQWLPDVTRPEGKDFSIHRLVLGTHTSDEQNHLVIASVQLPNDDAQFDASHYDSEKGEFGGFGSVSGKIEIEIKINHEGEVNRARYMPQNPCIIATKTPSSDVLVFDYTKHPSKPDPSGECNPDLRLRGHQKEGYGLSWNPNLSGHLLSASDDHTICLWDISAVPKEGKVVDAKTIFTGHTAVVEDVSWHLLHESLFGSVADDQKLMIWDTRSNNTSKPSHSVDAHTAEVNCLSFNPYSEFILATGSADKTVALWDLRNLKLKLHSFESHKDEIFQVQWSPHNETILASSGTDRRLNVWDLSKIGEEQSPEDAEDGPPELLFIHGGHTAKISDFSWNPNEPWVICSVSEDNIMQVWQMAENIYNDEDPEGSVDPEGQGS
T1 sequence (Q6ZN18 2-517 partner): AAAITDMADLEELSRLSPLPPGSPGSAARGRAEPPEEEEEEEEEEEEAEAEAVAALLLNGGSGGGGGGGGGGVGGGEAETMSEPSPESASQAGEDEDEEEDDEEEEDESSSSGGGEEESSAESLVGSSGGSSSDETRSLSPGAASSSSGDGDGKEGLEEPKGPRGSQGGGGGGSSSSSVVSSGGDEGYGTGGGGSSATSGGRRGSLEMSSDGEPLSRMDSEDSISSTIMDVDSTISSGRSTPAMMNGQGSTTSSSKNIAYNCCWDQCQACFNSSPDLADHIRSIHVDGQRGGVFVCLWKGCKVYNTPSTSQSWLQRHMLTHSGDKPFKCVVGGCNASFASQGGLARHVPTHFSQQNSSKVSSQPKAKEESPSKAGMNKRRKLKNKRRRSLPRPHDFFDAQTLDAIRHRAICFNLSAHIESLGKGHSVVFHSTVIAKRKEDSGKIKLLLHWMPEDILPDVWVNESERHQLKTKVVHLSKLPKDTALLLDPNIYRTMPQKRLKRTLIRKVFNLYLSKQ
EZH2 (zEZH2), sequence (Q08BS4 whole entry): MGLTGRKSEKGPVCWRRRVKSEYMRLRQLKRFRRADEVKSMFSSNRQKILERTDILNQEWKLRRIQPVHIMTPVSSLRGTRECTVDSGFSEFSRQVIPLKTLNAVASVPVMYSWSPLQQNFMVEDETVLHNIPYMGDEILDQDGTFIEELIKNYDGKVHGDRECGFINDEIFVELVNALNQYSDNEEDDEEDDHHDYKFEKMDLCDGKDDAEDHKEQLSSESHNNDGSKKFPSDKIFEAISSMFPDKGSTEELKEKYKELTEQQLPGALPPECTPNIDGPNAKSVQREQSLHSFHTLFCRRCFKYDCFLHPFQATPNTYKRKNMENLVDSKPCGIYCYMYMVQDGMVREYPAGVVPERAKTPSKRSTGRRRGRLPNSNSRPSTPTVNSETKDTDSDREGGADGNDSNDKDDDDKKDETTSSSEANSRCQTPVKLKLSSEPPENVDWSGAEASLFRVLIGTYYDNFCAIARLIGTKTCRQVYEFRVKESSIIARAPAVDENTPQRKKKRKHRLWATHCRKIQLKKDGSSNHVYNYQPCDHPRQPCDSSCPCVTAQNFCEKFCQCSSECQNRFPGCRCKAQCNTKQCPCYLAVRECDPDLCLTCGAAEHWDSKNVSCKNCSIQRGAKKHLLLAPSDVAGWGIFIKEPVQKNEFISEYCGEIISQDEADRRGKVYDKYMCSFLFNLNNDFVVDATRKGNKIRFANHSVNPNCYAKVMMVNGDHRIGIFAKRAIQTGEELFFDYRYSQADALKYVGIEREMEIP

As a reminder, the Kd is the free concentration of one partner at which half of the binding sites on the other are occupied at equilibrium, for simple one-to-one binding. High values mean lower affinity, low ones higher affinity. As for `Cc1coc2c1C(=O)C(=O)c1c-2ccc2c(C)cccc12` [Tan I, Tanshinone I], the “in vitro methyltransferase assay with recombinant PRC2 and histone H3.3, western” value in assay [1] is on record as ~ 5 μM. Further, the dissociation constant (Kd) turned out to be 29.4 µM at EZH2 (zEZH2) and 94.5 µM at EED (hEED).
